For test [1], the target named is T1, E3 ubiquitin-protein ligase XIAP (Homo sapiens, UniProt P98170). Put plainly: Counter Screen using XIAP-Bir3 for Chemical Antagonists of Bir1/2 domains of IAP-family anti-apoptotic proteins. [Related pubchem assays (depositor defined):AID1018, AID1449, AID1514, AID1638, AID1749, AID1750, AID488957, AID488963]. A general note: The purpose of a counterscreen is to sort out artefacts and off-target activity.

Test [2] has as its target T1, E3 ubiquitin-protein ligase XIAP. Put plainly: small molecules displacing peptide from XIAP – biochemical, IAP family, fluorescence polarization (AID 1018). The format is functional. For orientation: Polarisation of emitted light reports the rotation of a fluorescent probe.
Test [3] can be described thus: reduction of Shn3 3'UTR-driven luciferase in osteoblasts – cell-based, Clone20 osteoblasts, firefly luciferase, cherry-picked, dose response (AID 624132).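 Note: firefly luciferase luminescence from reporter carrying the Shn3 3'UTR in osteoblasts.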 The test is classed as functional.
A short description of test [4]: non-specific 3'UTR reporter inhibition in Clone20-Shn3RL – cell-based, Renilla luciferase, cherry-picked, counter-screen for Shn3 inhibitor project, dose response (AID 624133). The format is functional.
Test [5] relates to H4. Put plainly: Luminescence Cell-Based Dose Response HTS to Identify Activators of 5'UTR Stem-Loop Driven Prion Protein mRNA Translation in H4 Neuroglioblastoma Cells. [Related pubchem assays: 1829 (Project Summary), 1814 (Primary HTS)]. The test is classed as functional. The conditions noted are these: Homo sapiens.
A short description of test [6]: Luminescence Cell-Based Dose Confirmation HTS to Identify Activators of 5'UTR Stem-Loop Driven Alpha-Synuclein mRNA Translation in H4 Neuroglioblastoma Cells. [Related pubchem assays: 1829 (Project Summary), 1814 (Primary HTS)]. The test is classed as functional.
Test [7] can be described thus: Luminescence Cell-Based Dose Response HTS to Identify Activators of Luciferase Translation or Activity in H4 […] Cells. [Related pubchem assays: 1829 (Project Summary), 1814 (Primary HTS)]. The test is classed as functional.
For test [8], the target named is DNA damage-inducible transcript 3 protein (Mus musculus, UniProt P35639). The format is functional, Cricetulus griseus.
Sequence of DNA damage-inducible transcript 3 protein (P35639 whole entry): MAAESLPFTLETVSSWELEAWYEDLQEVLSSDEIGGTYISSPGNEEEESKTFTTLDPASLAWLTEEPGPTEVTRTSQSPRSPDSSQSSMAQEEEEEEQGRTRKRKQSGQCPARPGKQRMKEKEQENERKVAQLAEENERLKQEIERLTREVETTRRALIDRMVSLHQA
Test [9] in a line: loss of viability in HepG2 cells – cell-based, CellTiter-Glo, cherry-picked, cytotoxicity control for Shn3 inhibitor project, dose response (AID 624134). The test is classed as functional.
Test [10] in a line: NIH3T3 cell viability loss – ATP luminescence, mouse fibroblasts, counter-screen, dose response (AID 2010).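 Note: cells exposed to compound for about 90 hours before reading.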 The test is classed as functional, cell-based.
Test [11] relates to A-375. Briefly: MITF: Counter assay: A375 proliferation Measured in Cell-Based System Using Plate Reader - 2084-03_Inhibitor_Dose_DryPowder_Activity. [Related pubchem assays (depositor defined):AID488944]. The conditions noted are these: Homo sapiens. The format is functional.
The target of test [12] is T2, Microphthalmia-associated transcription factor (Homo sapiens, UniProt O75030).
T2 sequence (O75030 whole entry): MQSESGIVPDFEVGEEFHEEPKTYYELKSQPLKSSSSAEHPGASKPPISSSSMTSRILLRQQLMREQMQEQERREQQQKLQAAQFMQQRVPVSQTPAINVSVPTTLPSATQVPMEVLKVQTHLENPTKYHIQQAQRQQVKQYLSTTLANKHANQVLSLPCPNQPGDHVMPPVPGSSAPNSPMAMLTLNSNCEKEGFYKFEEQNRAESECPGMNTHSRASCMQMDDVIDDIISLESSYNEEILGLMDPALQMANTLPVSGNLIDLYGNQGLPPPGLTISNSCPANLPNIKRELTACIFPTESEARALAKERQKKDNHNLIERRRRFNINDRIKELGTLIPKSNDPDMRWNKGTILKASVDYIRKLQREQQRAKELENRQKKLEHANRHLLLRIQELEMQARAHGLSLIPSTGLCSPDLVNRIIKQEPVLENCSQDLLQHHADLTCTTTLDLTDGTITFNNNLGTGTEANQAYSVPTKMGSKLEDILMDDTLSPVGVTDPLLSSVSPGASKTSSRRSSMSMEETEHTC
Briefly: reducers of TRPM1 reporter luminescence, concentration series – cell-based, SK-MEL-5, cherry-picked, set 3, MITF inhibitor project, dose response (AID 493073).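 Note: SK-MEL-5 melanoma cells with luciferase driven by the MITF target TRPM1 promoter.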 The format is functional.

Test [13] in a line: Trypanosoma cruzi growth suppression in host cells – NIH3T3 host cells, beta-gal luminescence, confirmation (AID 2044).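 Note: intracellular parasites grown in NIH/3T3 mouse fibroblasts as host cells; luminescent beta-galactosidase reporter signal from transgenic T. cruzi replicating inside host cells; inhibitors lower the luminescence signal.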 The format is functional, cell-based.
The nature of test [14]: toxicity toward cultured mammalian cells – cell-based, plate reader, cherry-pick samples, cytotoxicity control, dose response (AID 504397). The format is functional.
Test [15] concerns HEK293. Put plainly: EBV LMP1 TES2 canonical NF-kB signalling blockers – cell-based, HEK293, luciferase, cherry-pick, dose response (AID 588343). The format is functional. The conditions noted are these: Homo sapiens.
Test [16] has as its target Voltage-gated inwardly rectifying potassium channel KCNH2 (Homo sapiens, UniProt Q12809). Briefly: concentration-dependent hERG rescue from blockers – cell-based, thallium flux, dose response (AID 2121). The format is ADME. (In general: The hERG channel carries a current that helps repolarise heart muscle cells.)

Results on three molecules are retold here after ChEMBL document CHEMBL1201862, “PubChem BioAssay data set” (2004).

Calls of active or inactive are those of the source.

T1 sequence (P98170 whole entry): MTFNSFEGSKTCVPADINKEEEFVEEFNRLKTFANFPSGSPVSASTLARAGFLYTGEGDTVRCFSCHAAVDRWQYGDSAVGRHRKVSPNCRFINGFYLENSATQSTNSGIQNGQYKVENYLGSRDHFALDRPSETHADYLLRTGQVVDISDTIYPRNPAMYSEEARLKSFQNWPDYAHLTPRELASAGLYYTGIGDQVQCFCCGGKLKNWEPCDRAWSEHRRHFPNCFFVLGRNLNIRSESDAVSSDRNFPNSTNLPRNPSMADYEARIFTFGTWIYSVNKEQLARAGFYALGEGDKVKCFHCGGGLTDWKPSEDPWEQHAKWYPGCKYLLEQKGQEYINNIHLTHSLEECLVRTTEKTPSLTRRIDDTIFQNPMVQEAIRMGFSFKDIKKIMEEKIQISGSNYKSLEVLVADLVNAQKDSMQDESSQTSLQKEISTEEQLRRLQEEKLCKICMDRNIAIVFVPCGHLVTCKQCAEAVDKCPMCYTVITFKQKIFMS
Sequence of Voltage-gated inwardly rectifying potassium channel KCNH2 (Q12809 whole entry): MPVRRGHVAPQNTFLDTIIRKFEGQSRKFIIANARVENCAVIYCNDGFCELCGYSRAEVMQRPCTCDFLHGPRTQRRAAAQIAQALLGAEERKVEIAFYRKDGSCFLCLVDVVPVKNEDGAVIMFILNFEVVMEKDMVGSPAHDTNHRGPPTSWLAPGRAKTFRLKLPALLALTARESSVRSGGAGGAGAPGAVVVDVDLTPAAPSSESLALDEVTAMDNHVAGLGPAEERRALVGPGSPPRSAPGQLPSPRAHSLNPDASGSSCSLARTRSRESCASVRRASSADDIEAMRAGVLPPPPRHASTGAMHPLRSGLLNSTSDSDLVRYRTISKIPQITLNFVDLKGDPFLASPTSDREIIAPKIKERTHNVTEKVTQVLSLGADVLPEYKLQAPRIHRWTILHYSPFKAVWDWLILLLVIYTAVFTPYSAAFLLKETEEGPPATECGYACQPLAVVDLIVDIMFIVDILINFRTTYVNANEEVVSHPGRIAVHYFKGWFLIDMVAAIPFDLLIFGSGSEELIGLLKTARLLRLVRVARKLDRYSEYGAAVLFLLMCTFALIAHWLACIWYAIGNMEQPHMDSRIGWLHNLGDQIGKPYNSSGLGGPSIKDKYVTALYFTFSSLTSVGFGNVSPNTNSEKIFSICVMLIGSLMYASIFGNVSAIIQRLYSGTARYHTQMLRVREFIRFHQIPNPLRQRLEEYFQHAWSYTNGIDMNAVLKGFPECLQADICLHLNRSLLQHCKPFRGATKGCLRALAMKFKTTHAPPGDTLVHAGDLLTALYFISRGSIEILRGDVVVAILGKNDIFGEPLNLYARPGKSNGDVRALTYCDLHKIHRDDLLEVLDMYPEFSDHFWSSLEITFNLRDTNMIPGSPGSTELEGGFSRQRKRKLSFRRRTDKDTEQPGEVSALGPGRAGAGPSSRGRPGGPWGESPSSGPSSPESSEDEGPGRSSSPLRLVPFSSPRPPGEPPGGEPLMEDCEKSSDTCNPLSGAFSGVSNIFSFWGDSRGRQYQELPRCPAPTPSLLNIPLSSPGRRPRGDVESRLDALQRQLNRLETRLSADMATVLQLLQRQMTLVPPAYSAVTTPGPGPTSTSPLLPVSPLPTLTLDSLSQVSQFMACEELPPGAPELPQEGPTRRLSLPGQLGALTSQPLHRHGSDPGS

The IC50 is the concentration that gives 50% inhibition. For the molecule `CN1/C(=C\C=C2\N=C(c3ccc(F)cc3)OC2=O)C(C)(C)c2ccccc21`, the figures for the IC50 in test [1] and in test [2] were > 12.5 µM (inactive) and > 100 µM (not active), respectively.
What is called AC50 is the concentration at which the activity in the assay is half-maximal. By EC50 is commonly meant the concentration giving half of the maximal effect. As to `CC(C)(C)C(=O)Cn1ncc(Br)c(Br)c1=O`, the AC50 was 9.51 µM (active) in test [3]; 13.9 µM (active) in [4]; 67.2 µM (active) in test [9]; 32.8 µM (active) in test [11]; 3.92 µM (active) in [12]. The EC50 in [5] is > 120 µM (not active); in test [6], > 120 µM (not active); in [7], > 120 µM (not active); in test [10], 1.93 µM (active); in test [13], 2.19 µM (active). The “Absolute IC50 (CHOP)” value in test [8] was determined as 10 µM.
For `Oc1c(N=NC(S)=Nc2ccccc2F)c2ccccc2n1Cc1ccccc1F`, the AC50 in test [14] was 302 µM (active); in test [15] it was 4.06 µM (active). In addition, the EC50 in test [16] was 0.44 µM (active); in test [13] it was 1.26 µM (active).
